Source: ChEMBL document CHEMBL4602680, “Dammarane-Type Triterpenoids from the Roots of Rhus chinensis and Their Preventive Effects on Zebrafish Heart Failure and Thrombosis” (J Nat Prod, 2020)
Activity calls are given as the source filed them. No cut-off for these calls is given here.

Tests used:
Danio rerio [1] = species on record: Danio rerio; experiment: prevention of heart failure in verapamil treated zebrafish AB assessed as efficacy on venous congestion at 0.5 ug/ml preincubated for 4.5 hrs followed by verapamil treatment and measured after 30 mins relative to verapamil alone; assay type: functional
Danio rerio [2] = species on record: Danio rerio; experiment: prevention of heart failure in verapamil treated zebrafish AB assessed as efficacy on blood flow velocity at 0.5 ug/ml preincubated for 4.5 hrs followed by verapamil treatment and measured after 30 mins relative to verapamil alone; assay type: functional
Danio rerio [3] = species on record: Danio rerio; experiment: Prevention of heart failure in verapamil treated zebrafish AB assessed as efficacy on heart dilation at 0.5 ug/ml preincubated for 4.5 hrs followed by verapamil treatment and measured after 30 mins relative to verapamil alone; assay type: functional
Danio rerio [4] = species on record: Danio rerio; experiment: prevention of heart failure in verapamil treated zebrafish AB assessed as efficacy on cardiac output at 0.5 ug/ml preincubated for 4.5 hrs followed by verapamil treatment and measured after 30 mins relative to verapamil alone; assay type: functional
[5] = Toxicity in zebrafish assessed as induction of adverse effect at 0.5 ug/ml in presence of verapamil; design: species or system Danio rerio; details: in vivo
Danio rerio [6] = species on record: Danio rerio; experiment: Prevention of heart failure in verapamil treated zebrafish AB assessed as efficacy on heart dilation preincubated for 4.5 hrs followed by verapamil treatment and measured after 30 mins; assay type: functional, organism-based
[7] = Toxicity in zebrafish assessed as induction of adverse effect at 0.5 ug/ml in presence of ponatinib; design: species or system Danio rerio; details: in vivo
[8] = Toxicity in zebrafish assessed as induction of adverse effect at 0.5 ug/ml; design: species or system Danio rerio; details: in vivo
Danio rerio [9] = species on record: Danio rerio; experiment: Antithrombotic activity in ponatinib treated zebrafish AB assessed as preventive efficacy on thrombosis at 0.5 ug/ml incubated for 18 hrs by O-dianisidine staining based assay relative to ponatinib alone; assay type: functional
Danio rerio [10] = species on record: Danio rerio; experiment: prevention of heart failure in verapamil treated zebrafish AB assessed as efficacy on heart rate at 0.5 ug/ml preincubated for 4.5 hrs followed by verapamil treatment and measured after 30 mins relative to verapamil alone; assay type: functional
[11] = Toxicity in zebrafish assessed as effect on blood flow at 0.5 ug/ml in presence of ponatinib; design: species or system Danio rerio; details: in vivo
[12] = Toxicity in zebrafish assessed as effect on blood flow at 0.5 ug/ml in presence of verapamil; design: species or system Danio rerio; details: in vivo
Danio rerio [13] = species on record: Danio rerio; experiment: prevention of heart failure in verapamil treated zebrafish AB assessed as efficacy on blood flow velocity at 10 ug/ml preincubated for 4.5 hrs followed by verapamil treatment and measured after 30 mins relative to verapamil alone; assay type: functional
Danio rerio [14] = species on record: Danio rerio; experiment: prevention of heart failure in verapamil treated zebrafish AB assessed as efficacy on cardiac output at 10 ug/ml preincubated for 4.5 hrs followed by verapamil treatment and measured after 30 mins relative to verapamil alone; assay type: functional
Danio rerio [15] = species on record: Danio rerio; experiment: Prevention of heart failure in verapamil treated zebrafish AB assessed as efficacy on heart dilation at 10 ug/ml preincubated for 4.5 hrs followed by verapamil treatment and measured after 30 mins relative to verapamil alone; assay type: functional
Danio rerio [16] = species on record: Danio rerio; experiment: prevention of heart failure in verapamil treated zebrafish AB assessed as efficacy on venous congestion at 10 ug/ml preincubated for 4.5 hrs followed by verapamil treatment and measured after 30 mins relative to verapamil alone; assay type: functional
Danio rerio [17] = species on record: Danio rerio; experiment: prevention of heart failure in verapamil treated zebrafish AB assessed as efficacy on venous congestion at 0.8 ug/ml preincubated for 4.5 hrs followed by verapamil treatment and measured after 30 mins relative to verapamil alone; assay type: functional
Danio rerio [18] = species on record: Danio rerio; experiment: prevention of heart failure in verapamil treated zebrafish AB assessed as efficacy on heart rate at 0.8 ug/ml preincubated for 4.5 hrs followed by verapamil treatment and measured after 30 mins relative to verapamil alone; assay type: functional
Danio rerio [19] = species on record: Danio rerio; experiment: prevention of heart failure in verapamil treated zebrafish AB assessed as efficacy on cardiac output at 0.8 ug/ml preincubated for 4.5 hrs followed by verapamil treatment and measured after 30 mins relative to verapamil alone; assay type: functional
Danio rerio [20] = species on record: Danio rerio; experiment: prevention of heart failure in verapamil treated zebrafish AB assessed as efficacy on blood flow velocity at 0.8 ug/ml preincubated for 4.5 hrs followed by verapamil treatment and measured after 30 mins relative to verapamil alone; assay type: functional
Danio rerio [21] = species on record: Danio rerio; experiment: Prevention of heart failure in verapamil treated zebrafish AB assessed as efficacy on heart dilation at 0.8 ug/ml preincubated for 4.5 hrs followed by verapamil treatment and measured after 30 mins relative to verapamil alone; assay type: functional
Danio rerio [22] = species on record: Danio rerio; experiment: Antithrombotic activity in ponatinib treated zebrafish AB assessed as preventive efficacy on thrombosis at 45 ug/ml incubated for 18 hrs by O-dianisidine staining based assay relative to ponatinib alone; assay type: functional

Compound	Activity (Danio rerio [1]) [%]	Activity (Danio rerio [2]) [%]	Activity (Danio rerio [3]) [%]	Activity (Danio rerio [4]) [%]	Activity [5]	Activity [7]	Activity [8]	Activity (Danio rerio [9]) [%]	Activity (Danio rerio [10]) [%]	further results
CCCCC1=NC2(CCCC2)C(=O)N1Cc1ccc(-c2ccccc2-c2nnn[nH]2)cc1 [IRBESARTAN]	36	15	30	25	–	–	–	–	–	–
C/C(=C/CC/C(CO)=C1\CC[C@]2(C)[C@@H]1CC[C@@H]1[C@@]3(C)CCC(=O)C(C)(C)[C@@H]3CC[C@]12C)CO	–	–	–	–	Non-Toxic	Non-Toxic	Non-Toxic	–	–	Activity (Danio rerio [6]): inactive
C=C(CCC=C(CO)CO)[C@@H]1CC[C@]2(C)[C@@H]1CC[C@@H]1[C@@]3(C)CCC(=O)C(C)(C)[C@@H]3CC[C@]12C	–	–	–	–	Non-Toxic	Non-Toxic	Non-Toxic	–	–	Activity (Danio rerio [6]): inactive
NS(=O)(=O)c1cc2c(cc1Cl)NCNS2(=O)=O [HYDROCHLOROTHIAZIDE]	60	33	56	53	–	–	–	–	–	–
C=C([C@@H]1CC[C@]2(C)[C@@H]1CC[C@@H]1[C@]34CC[C@@](O)(OC3)C(C)(C)[C@@H]4CC[C@]12C)[C@@H]1OC(=O)C(C)=C[C@H]1O	59	65	63	64	Non-Toxic	Non-Toxic	Non-Toxic	10	54	–
C=C([C@@H]1CC=C(C)C(=O)O1)[C@@H]1CC[C@]2(C)[C@@H]1CC[C@@H]1[C@]34CC[C@@](O)(OC3)C(C)(C)[C@@H]4CC[C@]12C	–	–	–	–	–	–	Non-Toxic	–	–	Activity [11]: Toxic; Activity [12]: Toxic
C=C([C@@H]1CC=C(C)C(=O)O1)[C@@H]1CC[C@]2(C)[C@@H]1CC[C@@H]1[C@@]34CO[C@](O)(C[C@H]3O)C(C)(C)[C@@H]4CC[C@]12C	51	65	66	58	Non-Toxic	Non-Toxic	Non-Toxic	68	60	–
CCOC(=O)[C@H](CCc1ccccc1)N[C@@H](C)C(=O)N1CCC[C@H]1C(=O)O [ENALAPRIL]	–	–	–	–	–	–	–	–	–	Activity (Danio rerio [13]): 26%; Activity (Danio rerio [14]): 34%; Activity (Danio rerio [15]): 31%; Activity (Danio rerio [16]): 34%
C[C@H]1O[C@@H](O[C@H]2[C@@H](O)C[C@H](O[C@H]3[C@@H](O)C[C@H](O[C@H]4CC[C@@]5(C)[C@H](CC[C@@H]6[C@@H]5C[C@@H](O)[C@]5(C)[C@@H](C7=CC(=O)OC7)CC[C@]65O)C4)O[C@@H]3C)O[C@@H]2C)C[C@H](O)[C@@H]1O [DIGOXIN]	73	28	53	40	–	–	–	–	–	Activity (Danio rerio [17]): 67%; Activity (Danio rerio [18]): 52%; Activity (Danio rerio [19]): 41%; Activity (Danio rerio [20]): 38%; Activity (Danio rerio [21]): 68%
C=C([C@@H]1CC=C(C)C(=O)O1)[C@@H]1CC[C@]2(C)[C@@H]1CC[C@@H]1[C@@]3(C)CCC(=O)C(C)(C)[C@@H]3CC[C@]12C	23	67	55	41	Non-Toxic	Non-Toxic	Non-Toxic	65	27	–
C=C(CC/C=C(/C)C(=O)O)[C@@H]1CC[C@]2(C)[C@@H]1CC[C@@H]1[C@]34CC[C@@](O)(OC3)C(C)(C)[C@@H]4CC[C@]12C	62	83	65	72	Non-Toxic	Non-Toxic	Non-Toxic	24	77	–
C=C([C@@H]1CC=C(C)C(=O)O1)[C@@H]1CC[C@]2(C)[C@@H]1CC[C@@H]1[C@@]34CO[C@](O)([C@@H](O)C3)C(C)(C)[C@@H]4CC[C@]12C	31	27	73	22	Non-Toxic	Non-Toxic	Non-Toxic	76	57	–
COCCc1ccc(OCC(O)CNC(C)C)cc1 (configuration not stated) [METOPROLOL]	29	17	34	35	–	–	–	–	–	–
CC(=O)Oc1ccccc1C(=O)O [ASPIRIN]	–	–	–	–	–	–	–	–	–	Activity (Danio rerio [22]): 86%
